Laboratory results: ChEMBL document CHEMBL1201862, “PubChem BioAssay data set” (2004)
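A five-concentration, 48-hour dose response in 96-well plates underlies each endpoint, interpolated linearly between surrounding concentrations. GI50 is the concentration that inhibits growth by half.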 Active and inactive are the calls of the source. No stated cut-off is given here; in the data, active = GI50 up to about 1.1 µM and inactive = higher.

What was measured:
Assay in all cases: growth of human tumour cells (NCI), 48 h
786-0 = system: 786-0
ACHN = system: ACHN
CCRF-CEM = system: CCRF-CEM
COLO 205 = system: COLO 205
HCC 2998 = system: HCC 2998
HCT-116 = system: HCT-116
HT-29 = system: HT-29
IGROV-1 = system: IGROV-1
M14 = system: M14
MCF7 = system: MCF7
MDA-MB-435 = system: MDA-MB-435
NCI-H522 = system: NCI-H522
OVCAR-3 = system: OVCAR-3
OVCAR-4 = system: OVCAR-4
OVCAR-5 = system: OVCAR-5
RPMI-8226 = system: RPMI-8226
SK-MEL-2 = system: SK-MEL-2
SNB-19 = system: SNB-19
UACC-257 = system: UACC-257
HOP-92 = system: HOP-92

Measured: GI50

NNC(=O)c1ccccc1Nc1ccccc1C(=O)NN
inactive: 786-0 > 100 µM | ACHN > 100 µM | CCRF-CEM > 100 µM | COLO 205 > 100 µM | HCC 2998 > 100 µM | HCT-116 > 100 µM | HT-29 > 100 µM | IGROV-1 > 100 µM | M14 > 100 µM | MCF7 > 100 µM | MDA-MB-435 > 100 µM | NCI-H522 > 100 µM | OVCAR-3 > 100 µM | OVCAR-4 > 100 µM | OVCAR-5 > 100 µM | RPMI-8226 > 100 µM | SK-MEL-2 > 100 µM | SNB-19 > 100 µM | UACC-257 > 100 µM

CC/C(=C/OC)P1(=O)OC(C)(C)CN1C(C)(C)C (stereo unspecified)
inactive: 786-0 > 100 µM | ACHN > 100 µM | COLO 205 > 100 µM | HCC 2998 > 100 µM | HCT-116 > 100 µM | HT-29 > 100 µM | IGROV-1 > 100 µM | M14 > 100 µM | MCF7 > 100 µM | MDA-MB-435 > 100 µM | OVCAR-3 > 100 µM | OVCAR-4 > 100 µM | OVCAR-5 > 100 µM | RPMI-8226 > 100 µM | SK-MEL-2 > 100 µM | SNB-19 > 100 µM | UACC-257 > 100 µM

COc1ccc2c(c1)CC1c3c(cc4c(c3-2)OCO4)CCN1C (stereo unspecified)
inactive: 786-0 27.6 µM | ACHN 16.9 µM | CCRF-CEM 23 µM | COLO 205 15.8 µM | HCC 2998 41.1 µM | HCT-116 19.5 µM | HOP-92 18.1 µM | HT-29 27.7 µM | IGROV-1 31.7 µM | M14 22.8 µM | NCI-H522 15.6 µM | OVCAR-3 32.5 µM | OVCAR-4 23.1 µM | OVCAR-5 30.1 µM | RPMI-8226 24.8 µM | SK-MEL-2 26.5 µM | SNB-19 42 µM | UACC-257 24.1 µM

CCOC(=O)c1c(C(F)(F)F)oc2c1ccc1nc3nonc3nc12
inactive: 786-0 12.4 µM | ACHN 15.3 µM | CCRF-CEM 1.91 µM | COLO 205 24.2 µM | HCC 2998 24.9 µM | HCT-116 17 µM | HOP-92 13.2 µM | HT-29 15.5 µM | IGROV-1 23.2 µM | M14 9.14 µM | NCI-H522 15.1 µM | OVCAR-3 16.5 µM | OVCAR-4 9.82 µM | OVCAR-5 17.2 µM | RPMI-8226 6.07 µM | SK-MEL-2 19.3 µM | SNB-19 18.2 µM | UACC-257 13.5 µM

O=S(=O)(O)c1ccc(-c2c3nc(c(-c4ccc(S(=O)(=O)O)cc4)c4ccc([nH]4)c(-c4ccc(S(=O)(=O)O)cc4)c4nc(c(-c5ccc(S(=O)(=O)O)cc5)c5ccc2[nH]5)C=C4)C=C3)cc1
inactive: 786-0 > 100 µM | ACHN 86.3 µM | CCRF-CEM > 100 µM | COLO 205 > 100 µM | HCC 2998 > 100 µM | HCT-116 > 100 µM | HOP-92 21.8 µM | HT-29 > 100 µM | IGROV-1 > 100 µM | M14 90.6 µM | NCI-H522 26.5 µM | OVCAR-3 > 100 µM | OVCAR-4 45.6 µM | OVCAR-5 > 100 µM | RPMI-8226 > 100 µM | SK-MEL-2 27.1 µM | SNB-19 > 100 µM | UACC-257 > 100 µM

CC(C)N(C(=O)C12C3C4C1C1C2C3C41C#N)C(C)C (stereo unspecified)
inactive: 786-0 > 100 µM | ACHN > 100 µM | CCRF-CEM > 50 µM | COLO 205 > 100 µM | HCC 2998 > 100 µM | HCT-116 > 100 µM | HOP-92 > 100 µM | HT-29 > 100 µM | IGROV-1 > 100 µM | M14 > 100 µM | NCI-H522 > 87.1 µM | OVCAR-3 > 100 µM | OVCAR-4 > 100 µM | OVCAR-5 > 100 µM | RPMI-8226 > 46.7 µM | SK-MEL-2 > 100 µM | SNB-19 > 100 µM | UACC-257 > 100 µM

CC(=O)NC1(C)CCC(C(C)(C)NC(C)=O)CC1 (stereo unspecified)
inactive: 786-0 > 100 µM | ACHN > 100 µM | CCRF-CEM > 100 µM | COLO 205 > 100 µM | HCC 2998 > 100 µM | HCT-116 > 100 µM | HT-29 > 100 µM | IGROV-1 > 100 µM | M14 > 100 µM | MCF7 > 100 µM | MDA-MB-435 > 100 µM | OVCAR-3 > 100 µM | OVCAR-4 > 100 µM | OVCAR-5 > 100 µM | RPMI-8226 > 100 µM | SNB-19 > 100 µM | UACC-257 > 100 µM

CN(C(=O)C1CC1)C1C2CN3CCC(O2)C13 (stereo unspecified)
inactive: 786-0 > 100 µM | ACHN > 100 µM | CCRF-CEM > 100 µM | COLO 205 > 100 µM | HCC 2998 > 100 µM | HCT-116 > 100 µM | HOP-92 > 100 µM | HT-29 > 100 µM | IGROV-1 > 100 µM | M14 > 100 µM | NCI-H522 > 100 µM | OVCAR-3 > 100 µM | OVCAR-4 > 100 µM | OVCAR-5 > 100 µM | RPMI-8226 > 100 µM | SK-MEL-2 > 100 µM | SNB-19 > 100 µM | UACC-257 > 100 µM

NS(=O)(=O)c1cccc(NC(=S)NC(=O)Nc2ccc(Cl)c(Cl)c2)c1
inactive: 786-0 15.9 µM | ACHN 19.5 µM | CCRF-CEM 30.2 µM | COLO 205 20 µM | HCT-116 17.1 µM | HOP-92 24 µM | HT-29 25.9 µM | IGROV-1 20 µM | M14 14.2 µM | MCF7 18.3 µM | NCI-H522 12.8 µM | OVCAR-4 22.2 µM | OVCAR-5 25 µM | RPMI-8226 16.9 µM | SK-MEL-2 23.2 µM | SNB-19 21.2 µM | UACC-257 27.4 µM

Brc1cccc[n+]1-c1ccc2cc(-[n+]3ccccc3Br)ccc2c1
inactive: 786-0 26.4 µM | ACHN 17.7 µM | CCRF-CEM 34.1 µM | COLO 205 31 µM | HCC 2998 46.1 µM | HCT-116 39.6 µM | HT-29 29.1 µM | IGROV-1 11.4 µM | M14 > 100 µM | MCF7 35.7 µM | MDA-MB-435 80.9 µM | NCI-H522 40.1 µM | OVCAR-3 19.8 µM | OVCAR-5 39.8 µM | RPMI-8226 19.5 µM | SK-MEL-2 32.2 µM | SNB-19 72.8 µM | UACC-257 > 100 µM

Nc1ccc(C(=O)NN2C(=O)C(Cl)C2c2ccccc2O)cc1 (stereo unspecified)
inactive: 786-0 30.2 µM | ACHN 39.2 µM | CCRF-CEM 6.01 µM | COLO 205 43.2 µM | HCC 2998 18.7 µM | HCT-116 60.5 µM | HOP-92 > 100 µM | HT-29 > 100 µM | IGROV-1 > 100 µM | M14 24 µM | NCI-H522 62.2 µM | OVCAR-3 31.7 µM | OVCAR-4 60.1 µM | OVCAR-5 41.7 µM | RPMI-8226 44.5 µM | SK-MEL-2 > 100 µM | SNB-19 > 100 µM | UACC-257 > 100 µM
